Measured values published in ChEMBL document CHEMBL1201862, “PubChem BioAssay data set” (2004).
Activity calls are given as the source filed them.

What was measured:
[1] = NIH-3T3 fibroblast cytotoxicity, dose response, cytotoxicity control, cell-based, fluorescence, Alamar Blue, secondary assay (AID 2327); type: functional;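 further: NIH-3T3 mouse fibroblasts cultured with fluconazole at 8 µg/mL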
[2] = C. albicans growth with fluconazole, confirmation, fluorescence, retest (AID 2467); type: functional, cell-based
[3] = microbe, parasite or virus in culture; type: functional; conditions: Mycobacterium tuberculosis
[4] = inhibitors of intracellular T. cruzi replication, confirmation, NIH3T3 host cells, beta-gal luminescence (AID 2044); type: functional, cell-based;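 further: intracellular parasites grown in NIH/3T3 mouse fibroblasts as host cells; luminescent beta-galactosidase reporter signal from transgenic T. cruzi replicating inside host cells; inhibitors lower the luminescence signal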
[5] = cytotoxicity toward NIH3T3 fibroblasts, dose response, counter-screen, cell-based, ATP luminescence, mouse fibroblasts (AID 2010); type: functional;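 further: cells exposed to compound for about 90 hours before reading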
[6] = target: T1, Replicative DNA helicase DnaB (Mycobacterium tuberculosis, UniProt P9WMR3); assay: DnaB intein splicing inhibitors, dose response, biochemical, cell-free fluorescence (AID 449749); type: functional
T1 sequence (P9WMR3 whole entry): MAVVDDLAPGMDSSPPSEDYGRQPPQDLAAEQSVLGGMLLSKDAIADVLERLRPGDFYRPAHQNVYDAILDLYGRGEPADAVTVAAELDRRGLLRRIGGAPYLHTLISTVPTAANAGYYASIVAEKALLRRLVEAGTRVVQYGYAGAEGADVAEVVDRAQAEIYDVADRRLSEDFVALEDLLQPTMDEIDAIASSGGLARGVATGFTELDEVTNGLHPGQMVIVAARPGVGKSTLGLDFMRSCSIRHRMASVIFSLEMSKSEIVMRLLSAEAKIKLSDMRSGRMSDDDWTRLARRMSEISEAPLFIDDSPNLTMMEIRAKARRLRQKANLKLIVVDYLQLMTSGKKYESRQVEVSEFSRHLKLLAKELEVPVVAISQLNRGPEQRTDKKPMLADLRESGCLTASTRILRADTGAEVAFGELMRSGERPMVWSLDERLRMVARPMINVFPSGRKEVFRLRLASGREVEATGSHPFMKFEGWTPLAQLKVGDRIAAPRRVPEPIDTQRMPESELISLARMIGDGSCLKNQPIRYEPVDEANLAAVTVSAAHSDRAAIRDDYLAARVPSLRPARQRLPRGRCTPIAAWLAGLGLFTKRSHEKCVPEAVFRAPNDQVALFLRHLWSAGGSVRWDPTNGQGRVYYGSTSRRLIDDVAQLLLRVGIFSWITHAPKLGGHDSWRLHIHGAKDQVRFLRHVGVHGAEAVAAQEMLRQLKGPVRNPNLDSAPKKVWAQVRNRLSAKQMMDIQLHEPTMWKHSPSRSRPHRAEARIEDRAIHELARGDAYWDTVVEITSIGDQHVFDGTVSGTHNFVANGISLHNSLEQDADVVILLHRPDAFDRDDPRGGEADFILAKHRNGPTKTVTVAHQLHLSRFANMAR

Protein RecA = target: T2, Protein RecA (Mycobacterium tuberculosis, UniProt P9WHJ3); assay: Fluorescence Cell-Free Homogeneous Dose Retest to Identify Inhibitors of RecA-Intein Splicing Activity. [Related pubchem assays (depositor defined):AID2097, AID2223, AID489010, AID492950]; type: functional
T2 sequence (P9WHJ3 whole entry): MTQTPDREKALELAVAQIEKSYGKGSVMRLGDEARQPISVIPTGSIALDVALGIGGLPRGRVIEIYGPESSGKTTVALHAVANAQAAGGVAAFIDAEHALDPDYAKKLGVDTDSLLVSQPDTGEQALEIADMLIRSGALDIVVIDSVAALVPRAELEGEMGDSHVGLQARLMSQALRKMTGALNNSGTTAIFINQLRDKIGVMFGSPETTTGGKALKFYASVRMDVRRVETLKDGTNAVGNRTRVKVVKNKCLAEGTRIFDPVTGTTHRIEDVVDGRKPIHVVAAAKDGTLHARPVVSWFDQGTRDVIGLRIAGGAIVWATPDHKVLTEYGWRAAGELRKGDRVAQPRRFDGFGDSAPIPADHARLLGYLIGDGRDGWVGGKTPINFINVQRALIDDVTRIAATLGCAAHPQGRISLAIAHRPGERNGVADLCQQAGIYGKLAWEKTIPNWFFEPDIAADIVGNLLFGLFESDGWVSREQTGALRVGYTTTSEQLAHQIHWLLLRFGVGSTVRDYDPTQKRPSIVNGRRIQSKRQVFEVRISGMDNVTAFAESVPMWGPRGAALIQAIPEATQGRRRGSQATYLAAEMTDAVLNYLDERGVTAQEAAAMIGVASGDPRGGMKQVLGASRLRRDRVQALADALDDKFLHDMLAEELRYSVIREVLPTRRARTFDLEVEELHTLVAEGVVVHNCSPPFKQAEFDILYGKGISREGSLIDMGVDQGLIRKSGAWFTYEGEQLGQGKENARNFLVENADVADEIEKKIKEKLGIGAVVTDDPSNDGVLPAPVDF

[7] = target: T3, Carboxy-terminal domain RNA polymerase II polypeptide A small phosphatase 1 (Homo sapiens, UniProt Q9GZU7); assay: inhibitors of CTDSP1, concentration-response testing, biochemical assay, absorbance-based, actives from ultra-high-throughput screening (AID 540297); type: functional
T3 sequence (Q9GZU7 whole entry): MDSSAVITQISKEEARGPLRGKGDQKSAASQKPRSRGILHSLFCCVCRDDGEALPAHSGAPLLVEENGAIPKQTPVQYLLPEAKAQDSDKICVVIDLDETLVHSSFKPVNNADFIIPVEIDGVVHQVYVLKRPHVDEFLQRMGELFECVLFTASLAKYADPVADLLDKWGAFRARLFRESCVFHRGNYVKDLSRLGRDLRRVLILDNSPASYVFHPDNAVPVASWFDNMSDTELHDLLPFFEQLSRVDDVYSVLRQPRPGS

cells = type: functional
[8] = target: Luciferin 4-monooxygenase (Photinus pyralis, UniProt P08659); assay: firefly luciferase enzyme inhibitors, dose response, biochemical, luminescence (AID 1891)
Sequence of Luciferin 4-monooxygenase (P08659 whole entry): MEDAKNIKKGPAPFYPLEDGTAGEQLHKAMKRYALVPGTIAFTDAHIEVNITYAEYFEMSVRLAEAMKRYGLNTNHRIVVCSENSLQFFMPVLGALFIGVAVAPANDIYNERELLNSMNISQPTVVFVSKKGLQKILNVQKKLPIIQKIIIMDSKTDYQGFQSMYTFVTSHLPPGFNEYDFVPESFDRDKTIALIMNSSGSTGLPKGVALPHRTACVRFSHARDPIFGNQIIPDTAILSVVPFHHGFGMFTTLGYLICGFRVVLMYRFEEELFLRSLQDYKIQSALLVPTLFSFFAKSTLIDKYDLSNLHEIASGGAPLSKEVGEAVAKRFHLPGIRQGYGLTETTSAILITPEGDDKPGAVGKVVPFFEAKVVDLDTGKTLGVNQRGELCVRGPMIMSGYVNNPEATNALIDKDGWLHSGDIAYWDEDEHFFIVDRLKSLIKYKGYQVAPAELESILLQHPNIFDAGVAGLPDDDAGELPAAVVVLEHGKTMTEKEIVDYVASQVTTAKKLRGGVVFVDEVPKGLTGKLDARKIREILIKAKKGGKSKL

[9] = Luminescence Cell-Based Dose Confirmation HTS to Identify Inhibitors of Platelet Dense Granule Release. [Related pubchem assays: 1663 (Primary HTS), 1678 (Summary of Project)]; type: functional
Paired box protein Pax-8 = Paired box protein Pax-8 (Homo sapiens, UniProt Q06710); assay: inhibitors of PAX8-driven TPO luciferase reporter, dose response, RMG-I cells, cherry-pick (AID 687027); type: functional, cell-based;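 further: luciferase reporter driven by Pax8 target thyroperoxidase promoter measured by SteadyGlo luminescence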
Sequence of Paired box protein Pax-8 (Q06710 whole entry): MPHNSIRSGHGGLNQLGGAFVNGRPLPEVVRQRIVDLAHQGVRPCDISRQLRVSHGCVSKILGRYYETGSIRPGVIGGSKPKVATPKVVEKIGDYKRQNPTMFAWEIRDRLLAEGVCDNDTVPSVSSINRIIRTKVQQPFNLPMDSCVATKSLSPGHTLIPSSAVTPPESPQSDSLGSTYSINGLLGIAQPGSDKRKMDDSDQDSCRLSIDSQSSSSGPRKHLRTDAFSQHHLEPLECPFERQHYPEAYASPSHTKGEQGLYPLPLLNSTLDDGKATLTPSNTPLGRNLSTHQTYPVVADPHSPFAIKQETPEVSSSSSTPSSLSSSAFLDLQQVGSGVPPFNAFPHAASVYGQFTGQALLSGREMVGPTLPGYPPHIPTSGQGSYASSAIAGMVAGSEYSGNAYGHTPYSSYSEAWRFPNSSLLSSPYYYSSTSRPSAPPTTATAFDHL

[10] = Luminescence Cell-Based Dose Retest to Confirm Inhibitors of Cancer Stem Cells. [Related pubchem assays (depositor defined):AID2717, AID2721]; type: functional; conditions: Homo sapiens
Cytochrome P450 2C19 = Cytochrome P450 2C19 (Homo sapiens, UniProt P33261); assay: Cytochrome panel assay with activity outcomes. Panel member name: p450-cyp2c19 Compounds with AC50 equal or less than 10 uM are considered active; type: functional; conditions: read-out: AC50
Sequence of Cytochrome P450 2C19 (P33261 whole entry): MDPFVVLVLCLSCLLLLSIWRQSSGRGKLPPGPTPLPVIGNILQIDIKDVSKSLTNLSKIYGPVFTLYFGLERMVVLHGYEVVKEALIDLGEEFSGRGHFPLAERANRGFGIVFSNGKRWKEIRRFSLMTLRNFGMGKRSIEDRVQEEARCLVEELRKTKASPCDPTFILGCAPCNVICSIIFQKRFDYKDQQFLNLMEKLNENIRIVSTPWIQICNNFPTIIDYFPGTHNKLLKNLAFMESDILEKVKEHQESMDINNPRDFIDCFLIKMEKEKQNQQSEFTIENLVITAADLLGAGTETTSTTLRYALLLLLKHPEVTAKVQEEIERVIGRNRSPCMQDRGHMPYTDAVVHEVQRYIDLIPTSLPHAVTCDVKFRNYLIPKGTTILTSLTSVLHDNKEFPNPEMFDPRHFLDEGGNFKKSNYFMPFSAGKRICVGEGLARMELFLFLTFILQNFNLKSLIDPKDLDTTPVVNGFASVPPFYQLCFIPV

Cytochrome P450 2C9 = Cytochrome P450 2C9 (Homo sapiens, UniProt P11712)
Sequence of Cytochrome P450 2C9 (P11712 whole entry): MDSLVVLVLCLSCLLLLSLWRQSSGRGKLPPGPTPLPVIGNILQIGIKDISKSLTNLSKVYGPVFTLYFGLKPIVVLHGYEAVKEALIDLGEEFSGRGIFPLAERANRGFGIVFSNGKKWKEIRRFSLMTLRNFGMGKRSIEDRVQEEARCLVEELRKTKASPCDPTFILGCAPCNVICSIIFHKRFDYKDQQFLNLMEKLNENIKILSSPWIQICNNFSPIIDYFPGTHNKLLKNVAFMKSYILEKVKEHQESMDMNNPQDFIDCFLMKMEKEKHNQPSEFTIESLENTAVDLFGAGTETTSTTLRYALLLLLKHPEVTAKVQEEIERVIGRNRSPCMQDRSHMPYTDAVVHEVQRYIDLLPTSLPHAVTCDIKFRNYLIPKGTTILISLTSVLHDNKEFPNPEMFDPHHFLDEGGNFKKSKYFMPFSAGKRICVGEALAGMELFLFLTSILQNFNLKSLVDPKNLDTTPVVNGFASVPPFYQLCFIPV

[11] = HEp-2 cell cytotoxicity, dose response, cytotoxicity control for RSV inhibitor project, HTS (AID 2410); type: functional; conditions: human respiratory syncytial virus
[12] = system: Streptococcus sp. 'group A'; assay: growth inhibition of control SK(-) GAS strain, dose response, counter-screen for streptokinase expression inhibitor project, luminescence, kanamycin, BacTiterGlo, confirmation (AID 1900); type: functional, organism-based
Streptokinase A = target: T4, Streptokinase A (Streptococcus pyogenes serotype M1, UniProt P10520); assay: S. pyogenes streptokinase expression inhibitors, potency, dose response, plasminogen activation absorbance, OD405 (AID 1914); type: functional, Streptococcus pyogenes M1 GAS;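 further: secreted streptokinase activity via plasminogen activation per viability signal from cell pellet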
T4 sequence (P10520 whole entry): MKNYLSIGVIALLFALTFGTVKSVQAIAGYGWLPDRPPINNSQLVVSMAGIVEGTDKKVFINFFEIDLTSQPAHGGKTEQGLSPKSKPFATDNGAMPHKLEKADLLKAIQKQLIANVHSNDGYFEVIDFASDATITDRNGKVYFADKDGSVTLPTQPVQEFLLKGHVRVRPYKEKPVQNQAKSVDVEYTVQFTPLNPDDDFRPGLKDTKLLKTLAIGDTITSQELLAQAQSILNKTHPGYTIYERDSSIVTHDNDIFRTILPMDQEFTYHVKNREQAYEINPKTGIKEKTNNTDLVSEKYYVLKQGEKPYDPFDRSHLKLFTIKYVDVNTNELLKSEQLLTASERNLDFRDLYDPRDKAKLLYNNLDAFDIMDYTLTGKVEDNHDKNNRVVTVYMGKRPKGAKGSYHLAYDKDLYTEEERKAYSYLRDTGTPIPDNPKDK

Streptococcus = assay: Group A Streptococcus viability loss, dose response, counter-screen for streptokinase expression inhibitor project, luminescence, BacTiterGlo (AID 1915); type: functional, organism-based;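 further: potency for reduction of bacterial viability or growth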

## C=CCn1c(NC(=O)c2ccc(Br)o2)c(C(=O)OCC)sc1=S
[1]
  EC50: > 160 µM (inconclusive)
[2]
  EC50: > 38 µM (not active)

## O=C(CCCCCNc1nc(S)nc2ccccc12)N1CCN(c2ccccn2)CC1
[3]
  CC50: > 40 µM (active)

## Cn1c(-c2ccccc2)c(C(=O)CCl)c2ccccc21
[4]
  EC50: 0.998 µM (active)
[5]
  EC50: 2.44 µM (active)
[6]
  AC50: 6.94 µM (active)
Protein RecA
  EC50: 3.04 µM (active)

## O=C(Nc1cc(S(=O)(=O)N2CCCCC2)ccc1Cl)C1COc2ccccc2O1 (stereo not given)
[7]
  IC50: 46.4 µM (active)

## Cc1cc(C=C2C(=O)NC(=S)NC2=O)c(C)n1C1CCCC1
[3]
  CC50: > 40 µM (active)
cells
  IC50: 10.4 µM (active)

## COC(=O)c1oc2ccc(Br)cc2c1-n1cccc1
[8]
  EC50: > 112 µM (not active)
[9]
  EC50: > 112 µM (not active)

## Cc1cccc(N2CCN(c3nc(C)cc(C)c3C#N)CC2C)c1 (stereo not given)
[1]
  EC50: 41.3 µM (active)
[2]
  EC50: > 38 µM (not active)
[4]
  EC50: 3.63 µM (active)
[5]
  EC50: > 60 µM (not active)

## Cc1cccc(C)c1OCC(=O)Nc1cccc(-c2nnc(-c3ccccc3)o2)c1
[3]
  CC50: 34.9 µM (active)

## C[C@@H]1CN([C@@H](C)CO)C(=O)c2ccccc2-c2ccccc2CO[C@@H]1CN(C)Cc1ccc2c(c1)OCCN2C
Paired box protein Pax-8
  AC50: 29.5 µM (active)

## C[C@H](CO)N1C[C@H](C)[C@@H](CN(C)Cc2ccc(Cl)c(Cl)c2)OCCCC[C@H](C)Oc2ccc(NC(=O)Nc3ccc(C(F)(F)F)cc3)cc2C1=O
Paired box protein Pax-8
  AC50: 4.17 µM (active)

## O=C(Cc1ccccc1)N/N=C/c1ccc(OCC(=O)Nc2ccccc2)cc1
[7]
  IC50: 10.2 µM (active)

## CCOc1cc(/C=C2/SC(=S)N(Cc3ccccc3)C2=O)ccc1O
[10]
  AC50: 1.42 µM (active)
[6]
  AC50: 38.9 µM (active)
Protein RecA
  EC50: 3.96 µM (active)

## Nc1ccc(-c2nc3ccccc3o2)cc1
[8]
  EC50: 51.5 µM (active)
[9]
  EC50: > 112 µM (not active)

## Cc1cc(-c2nnc(CCC(=O)NC(C)c3cccc4ccccc34)o2)no1 (stereo not given)
[8]
  EC50: > 112 µM (not active)
[9]
  EC50: > 112 µM (not active)

## CCOC(=O)c1cc(CC)sc1NC(=O)c1cc(OCC)c(OCC)c(OCC)c1
[3]
  CC50: > 40 µM (active)
Cytochrome P450 2C19
  AC50: 25.1 µM (inconclusive)
Cytochrome P450 2C9
  AC50: 20 µM (inconclusive)

## CC1CCN(C(=S)NC(=O)c2cccs2)CC1
[3]
  CC50: > 40 µM (active)

## CCOC(=O)c1ccc(COC(=O)c2ccc(-c3nnc(-c4ccccc4)o3)cc2)o1
[8]
  EC50: 28.5 µM (active)
[9]
  EC50: 8.77 µM (active)
cells
  IC50: > 50 µM (active)

## Cc1nnc2n(Cc3ccccc3)c(=O)c3c4c(sc3n12)COC(C(C)C)C4 (stereo not given)
[11]
  CC50: 31.3 µM (active)
[8]
  EC50: > 112 µM (not active)
[9]
  EC50: > 112 µM (not active)

## Cc1cc(OC(C)C(=O)NCc2ccncc2)c2c3c(c(=O)oc2c1)CCC3 (stereo not given)
[8]
  EC50: > 112 µM (not active)
[9]
  EC50: > 112 µM (not active)

## COc1ccc(CCNC(=O)c2cc3c(=O)n4ccccc4nc3n(Cc3ccco3)c2=N)cc1OC
[8]
  EC50: > 112 µM (not active)
[9]
  EC50: 44 µM (active)

## CC(C)=CCOc1ccc([C@@H]2COc3c(ccc4c3C=CC(C)(C)O4)C2)c(O)c1
[12]
  EC50: 2.28 µM (active)
Streptokinase A
  EC50: > 150 µM (not active)
[3]
  CC50: > 40 µM (active)
Streptococcus
  EC50: 2.25 µM (active)
[10]
  AC50: 3.44 µM (active)

## NCCCn1c(C(=O)c2ccc(Cl)cc2)c2ccc([N+](=O)[O-])cc2[n+]1[O-]
[3]
  CC50: 35.4 µM (active)

## O=C(/C=C/c1ccccc1)Nn1c(-c2cccs2)nc2ccccc2c1=O
[1]
  EC50: > 160 µM (inactive)
[2]
  EC50: 0.102 µM (active)

## O=S(=O)(c1cccc(-c2nnc(SC(F)F)n2-c2ccccc2)c1)N1CCCCC1
[8]
  EC50: > 112 µM (not active)
[9]
  EC50: > 112 µM (not active)

## Cc1ccc(C2=[N+]([O-])C3(CCCCC/C3=N\O)N(O)C2(C)C)o1 (stereo not given)
[8]
  EC50: > 112 µM (not active)
[9]
  EC50: > 112 µM (not active)

## COC(=O)c1sc(N)c(C(=O)OC)c1COC(=O)CNS(=O)(=O)c1ccc(C)cc1
[8]
  EC50: > 112 µM (not active)
[9]
  EC50: > 112 µM (not active)
